Measured values from ChEMBL document CHEMBL4257522, “Synthesis and preliminary anti-inflammatory and anti-bacterial evaluation of some diflunisal aza-analogs” (Medchemcomm, 2018).
Activity calls are given as the source filed them. The rule behind the calls is not given here.

Assays:
Klebsiella pneumoniae [1] = experiment: Toxicity in Klebsiella pneumoniae ATCC 13883 up to 32 uM measured after 16 hrs; assay type: organism-based
Klebsiella pneumoniae [2] = experiment: Potentiation of methicillin-induced antibacterial activity against Klebsiella pneumoniae ATCC 13883 assessed as minimum modulatory concentration up to 32 uM measured after 16 hrs in presence of MIC/4 methicillin; assay type: functional; conditions: ATCC 13883, 16 h, read-out: MEC
Escherichia coli [3] = experiment: Potentiation of tetracycline-induced antibacterial activity against Escherichia coli ATCC 43894 assessed as minimum modulatory concentration up to 32 uM measured after 16 hrs in presence of MIC/4 tetracycline; assay type: functional; conditions: ATCC 43894, 16 h, read-out: MEC
Escherichia coli [4] = experiment: Potentiation of geneticin-induced antibacterial activity against Escherichia coli ATCC 43894 assessed as minimum modulatory concentration up to 32 uM measured after 16 hrs in presence of MIC/4 geneticin; assay type: functional; conditions: ATCC 43894, 16 h, read-out: MEC
Klebsiella pneumoniae [5] = experiment: Potentiation of erythromycin-induced antibacterial activity against Klebsiella pneumoniae ATCC 13883 assessed as minimum modulatory concentration up to 32 uM measured after 16 hrs in presence of MIC/4 erythromycin; assay type: functional; conditions: ATCC 13883, 16 h, read-out: MEC
Streptococcus pyogenes [6] = experiment: Potentiation of methicillin-induced antibacterial activity against Streptococcus pyogenes ATCC 14289 assessed as minimum modulatory concentration up to 32 uM measured after 16 hrs in presence of MIC/4 methicillin; assay type: functional; conditions: ATCC 14289, 16 h, read-out: MEC
Klebsiella pneumoniae [7] = experiment: Potentiation of geneticin-induced antibacterial activity against Klebsiella pneumoniae ATCC 13883 assessed as minimum modulatory concentration up to 32 uM measured after 16 hrs in presence of MIC/4 geneticin; assay type: functional; conditions: ATCC 13883, 16 h, read-out: MEC
Staphylococcus aureus [8] = experiment: Potentiation of erythromycin-induced antibacterial activity against Staphylococcus aureus ATCC 33592 assessed as minimum modulatory concentration up to 32 uM measured after 16 hrs in presence of MIC/4 erythromycin; assay type: functional; conditions: ATCC 33592, 16 h, read-out: MEC
Escherichia coli [9] = experiment: Potentiation of erythromycin-induced antibacterial activity against Escherichia coli ATCC 43894 assessed as minimum modulatory concentration up to 32 uM measured after 16 hrs in presence of MIC/4 erythromycin; assay type: functional; conditions: ATCC 43894, 16 h, read-out: MEC
Staphylococcus aureus [10] = experiment: Potentiation of geneticin-induced antibacterial activity against Staphylococcus aureus ATCC 33592 assessed as minimum modulatory concentration up to 32 uM measured after 16 hrs in presence of MIC/4 geneticin; assay type: functional; conditions: ATCC 33592, 16 h, read-out: MEC
Pseudomonas aeruginosa [11] = experiment: Potentiation of erythromycin-induced antibacterial activity against Pseudomonas aeruginosa ATCC BAA-2108 assessed as minimum modulatory concentration up to 32 uM measured after 16 hrs in presence of MIC/4 erythromycin; assay type: functional; conditions: ATCC BAA-2108, 16 h, read-out: MEC
Escherichia coli [12] = experiment: Potentiation of methicillin-induced antibacterial activity against Escherichia coli ATCC 43894 assessed as minimum modulatory concentration up to 32 uM measured after 16 hrs in presence of MIC/4 methicillin; assay type: functional; conditions: ATCC 43894, 16 h, read-out: MEC
Enterococcus faecium [13] = experiment: Potentiation of geneticin-induced antibacterial activity against Enterococcus faecium ATCC 700221 assessed as minimum modulatory concentration up to 32 uM measured after 16 hrs in presence of MIC/4 geneticin; assay type: functional; conditions: ATCC 700221, 16 h, read-out: MEC
Klebsiella pneumoniae [14] = experiment: Potentiation of ciprofloxacin-induced antibacterial activity against Klebsiella pneumoniae ATCC 13883 assessed as minimum modulatory concentration up to 32 uM measured after 16 hrs in presence of MIC/4 ciprofloxacin; assay type: functional; conditions: ATCC 13883, 16 h, read-out: MEC
Pseudomonas aeruginosa [15] = experiment: Potentiation of methicillin-induced antibacterial activity against Pseudomonas aeruginosa ATCC BAA-2108 assessed as minimum modulatory concentration up to 32 uM measured after 16 hrs in presence of MIC/4 methicillin; assay type: functional; conditions: ATCC BAA-2108, 16 h, read-out: MEC
Klebsiella pneumoniae [16] = experiment: Potentiation of tetracycline-induced antibacterial activity against Klebsiella pneumoniae ATCC 13883 assessed as minimum modulatory concentration up to 32 uM measured after 16 hrs in presence of MIC/4 tetracycline; assay type: functional; conditions: ATCC 13883, 16 h, read-out: MEC
Pseudomonas aeruginosa [17] = experiment: Potentiation of geneticin-induced antibacterial activity against Pseudomonas aeruginosa ATCC BAA-2108 assessed as minimum modulatory concentration up to 32 uM measured after 16 hrs in presence of MIC/4 geneticin; assay type: functional; conditions: ATCC BAA-2108, 16 h, read-out: MEC
Pseudomonas aeruginosa [18] = experiment: Toxicity in Pseudomonas aeruginosa ATCC BAA-2108 up to 32 uM measured after 16 hrs; assay type: organism-based; conditions: in vitro
Escherichia coli [19] = experiment: Toxicity in Escherichia coli ATCC 43894 up to 32 uM measured after 16 hrs; assay type: organism-based
Pseudomonas aeruginosa [20] = experiment: Potentiation of ciprofloxacin-induced antibacterial activity against Pseudomonas aeruginosa ATCC BAA-2108 assessed as minimum modulatory concentration up to 32 uM measured after 16 hrs in presence of MIC/4 ciprofloxacin; assay type: functional; conditions: ATCC BAA-2108, 16 h, read-out: MEC
Enterococcus faecium [21] = experiment: Toxicity in Enterococcus faecium ATCC 700221 up to 32 uM measured after 16 hrs; assay type: organism-based; conditions: in vitro
Macrophage cell line [22] = experiment: Induction of IL-8 production in human PBMC-differentiated macrophages after 24 hrs by ELISA; assay type: cell-based
Streptococcus pyogenes [23] = experiment: Potentiation of tetracycline-induced antibacterial activity against Streptococcus pyogenes ATCC 14289 assessed as minimum modulatory concentration up to 32 uM measured after 16 hrs in presence of MIC/4 tetracycline; assay type: functional; conditions: ATCC 14289, 16 h, read-out: MEC
Enterococcus faecium [24] = experiment: Potentiation of ciprofloxacin-induced antibacterial activity against Enterococcus faecium ATCC 700221 assessed as minimum modulatory concentration up to 32 uM measured after 16 hrs in presence of MIC/4 ciprofloxacin; assay type: functional; conditions: ATCC 700221, 16 h, read-out: MEC
Streptococcus pyogenes [25] = experiment: Potentiation of ciprofloxacin-induced antibacterial activity against Streptococcus pyogenes ATCC 14289 assessed as minimum modulatory concentration up to 32 uM measured after 16 hrs in presence of MIC/4 ciprofloxacin; assay type: functional; conditions: ATCC 14289, 16 h, read-out: MEC
Staphylococcus aureus [26] = experiment: Potentiation of methicillin-induced antibacterial activity against Staphylococcus aureus ATCC 33592 assessed as minimum modulatory concentration up to 32 uM measured after 16 hrs in presence of MIC/4 methicillin; assay type: functional; conditions: ATCC 33592, 16 h, read-out: MEC
Macrophage cell line [27] = experiment: Induction of TNFalpha production in human PBMC-differentiated macrophages after 24 hrs by ELISA; assay type: cell-based
Enterococcus faecium [28] = experiment: Potentiation of methicillin-induced antibacterial activity against Enterococcus faecium ATCC 700221 assessed as minimum modulatory concentration up to 32 uM measured after 16 hrs in presence of MIC/4 methicillin; assay type: functional; conditions: ATCC 700221, 16 h, read-out: MEC
Escherichia coli [29] = experiment: Potentiation of ciprofloxacin-induced antibacterial activity against Escherichia coli ATCC 43894 assessed as minimum modulatory concentration up to 32 uM measured after 16 hrs in presence of MIC/4 ciprofloxacin; assay type: functional; conditions: ATCC 43894, 16 h, read-out: MEC
Streptococcus pyogenes [30] = experiment: Potentiation of erythromycin-induced antibacterial activity against Streptococcus pyogenes ATCC 14289 assessed as minimum modulatory concentration up to 32 uM measured after 16 hrs in presence of MIC/4 erythromycin; assay type: functional; conditions: ATCC 14289, 16 h, read-out: MEC
Macrophage cell line [31] = experiment: Induction of prostaglandin production in human PBMC-differentiated macrophages after 24 hrs by ELISA; assay type: cell-based
Macrophage cell line [32] = experiment: Induction of IL-1beta production in human PBMC-differentiated macrophages after 24 hrs by ELISA; assay type: cell-based
Macrophage cell line [33] = experiment: Antiinflammatory activity in human PBMC-differentiated macrophages assessed as inhibition of LPS-induced prostaglandin production at 0.01 to 10 uM measured after 24 hrs by ELISA; assay type: functional, cell-based

Compound | Activity (Klebsiella pneumoniae [1]) | minimal effective concentration (Klebsiella pneumoniae [2]) | minimal effective concentration (Escherichia coli [3]) | minimal effective concentration (Escherichia coli [4]) | minimal effective concentration (Klebsiella pneumoniae [5]) | minimal effective concentration (Streptococcus pyogenes [6]) | minimal effective concentration (Klebsiella pneumoniae [7]) | minimal effective concentration (Staphylococcus aureus [8]) | minimal effective concentration (Escherichia coli [9]) | minimal effective concentration (Staphylococcus aureus [10]) | minimal effective concentration (Pseudomonas aeruginosa [11]) | minimal effective concentration (Escherichia coli [12]) | minimal effective concentration (Enterococcus faecium [13]) | minimal effective concentration (Klebsiella pneumoniae [14]) | minimal effective concentration (Pseudomonas aeruginosa [15]) | minimal effective concentration (Klebsiella pneumoniae [16]) | minimal effective concentration (Pseudomonas aeruginosa [17]) | Activity (Pseudomonas aeruginosa [18]) | Activity (Escherichia coli [19]) | minimal effective concentration (Pseudomonas aeruginosa [20]) | further results
O=C(O)c1cc(-c2ccc(F)cc2F)ncc1O | Non-Toxic | > 32 µM | > 32 µM | > 32 µM | > 32 µM | 2 µM | > 32 µM | 4 µM | > 32 µM | 2 µM | 4 µM | > 32 µM | 4 µM | > 32 µM | 8 µM | > 32 µM | > 32 µM | Non-Toxic | Non-Toxic | 4 µM | Activity (Enterococcus faecium [21]): Non-Toxic; Activity (Macrophage cell line [22]): Non-Toxic; minimal effective concentration (Streptococcus pyogenes [23]): 8 µM; minimal effective concentration (Enterococcus faecium [24]): > 32 µM; minimal effective concentration (Streptococcus pyogenes [25]): > 32 µM; minimal effective concentration (Staphylococcus aureus [26]): 0.5 µM; Activity (Macrophage cell line [27]): Non-Toxic; minimal effective concentration (Enterococcus faecium [28]): 0.25 µM; minimal effective concentration (Escherichia coli [29]): > 32 µM; minimal effective concentration (Streptococcus pyogenes [30]): 4 µM; Activity (Macrophage cell line [31]): Non-Toxic; Activity (Macrophage cell line [32]): Non-Toxic
O=C(O)c1cc(-c2ccccc2)ncc1O | Non-Toxic | > 32 µM | > 32 µM | > 32 µM | > 32 µM | 16 µM | > 32 µM | > 32 µM | > 32 µM | > 32 µM | > 32 µM | > 32 µM | > 32 µM | > 32 µM | > 32 µM | > 32 µM | > 32 µM | Non-Toxic | Non-Toxic | > 32 µM | Activity (Enterococcus faecium [21]): Non-Toxic; Activity (Macrophage cell line [22]): Non-Toxic; minimal effective concentration (Streptococcus pyogenes [23]): > 32 µM; minimal effective concentration (Enterococcus faecium [24]): > 32 µM; minimal effective concentration (Streptococcus pyogenes [25]): > 32 µM; minimal effective concentration (Staphylococcus aureus [26]): 16 µM; Activity (Macrophage cell line [27]): Non-Toxic; minimal effective concentration (Enterococcus faecium [28]): > 32 µM; minimal effective concentration (Escherichia coli [29]): > 32 µM; inhibition (Macrophage cell line [33]): inactive; minimal effective concentration (Streptococcus pyogenes [30]): > 32 µM; Activity (Macrophage cell line [31]): Non-Toxic; Activity (Macrophage cell line [32]): Non-Toxic
